# Measurements from US9446039B2, “Aminoheteroaryl compounds as MTH1 inhibitors” (CEMM—FORSCHUNGSZENTRUM FÜR MOLEKULARE MEDIZIN GMBH, priority 2012, dated 2016).
# Entries after “also recorded” stand apart in the source; their conditions may differ.
# Key:
# MRC-5 lung fibroblasts = assay: Comet assay in MRC-5 lung fibroblasts; assay type: cell-based
# Experimental: (§1) Comet Assay. Cells were treated with compounds for 6 days, upon which DNA single-strand breaks were assayed using the comet assay under alkali conditions. […] Cells were washed twice with PBS, harvested using a rubber scraper, pelleted by centrifugation, resuspended in PBS and mixed with 1% low-gelling-temperature agarose (Sigma type VII) that was maintained at 37° C. The mixture of cells and agarose was layered onto frosted glass slides pre-coated with 0.5% agarose and slides were placed on ice to gel. Slides were maintained in the dark for all subsequent steps. […] After electrophoresis for 25 minutes at 25 volts, slides were placed at 4° C. over-night, in the dark. The following day, slides were neutralized with 0.4 M Tris-HCl pH 7.0 for 1 hour and stained with SYBR Gold (Invitrogen, diluted 1:10,000 in distilled water) for 30 minutes. Comet tail moments (defined as the average distance migrated by the DNA multiplied by the fraction of DNA in the comet tail) were scored using the CellProfiler cell image analysis software.
# [1] = system: Ewing's sarcoma family of tumours (ESFT) cells
# BJ skin fibroblasts = assay: Colony formation assay with untransformed BJ skin fibroblasts; assay type: cell-based, human; conditions: 10 days incubation
# [2] = system: SH-SY5Y, NCI-H3122 and NCI-H1648 cell lysates; assay: Chemical proteomics competition pull-downs (iTRAQ) in SH-SY5Y, NCI-H3122 and NCI-H1648 lysates; assay type: binding, human; conditions: competition with 20 μM unmodified crizotinib
# BJ fibroblasts = assay: 8-oxo-guanine staining in BJ cells; conditions: fixed 72 h later
# SW480 cells [3] = assay: Indirect immunofluorescence for 53BP1 foci in SW480 cells; assay type: cell-based, human; conditions: 6 days treatment
# Experimental: Indirect Immunofluorescence. Cells were treated with compounds for 6 days, following which they were adhered to glass coverslips, washed with PBS and then fixed with 3% paraformaldehyde in PBS for 20 minutes. Fixed cells were rinsed with PBS and permebealised with 0.5% Triton-X-100 for 5 minutes. PBS washed slides were incubated for 1 hour with 10% FCS and 0.1% Triton-X-100 in PBS following which cells were stained with an anti-53BP1 monoclonal antibody (H-300, Santa Cruz, diluted 1:600), in 10% FCS and 0.1% Triton-X-100 in PBS. […] After a PBS wash, DNA was counterstained with DAPI (Sigma-Aldrich) for 10 minutes and the coverslips were mounted in Fluorescent Mounting Medium (Dako). Images were analysed with a Zeiss fluorescent microscope at 63 times magnification with supporting software.
# [4] = system: PANC1 pancreatic cancer cells; assay: Colony formation assay using PANC1 cells; assay type: cell-based, human; conditions: K-Ras mutated PANC1
# SW480 cells [5] = assay: Alkaline comet assay (DNA single strand breaks) in SW480 cells; assay type: cell-based, human; conditions: 6 days treatment, alkali conditions
# Experimental: as §1
# MDA-MB-231 = conditions: 10 μM, versus DMSO-treated cells; KRAS G13D
# SW480 cells [6] = assay: SW480 mouse xenograft study; assay type: in vivo, SCID mice; conditions: 25 mg/kg s.c. once daily, 35 days
# Experimental: (§2) Xenograft Study. SCID mice (female, 5-6 weeks, Scanbur, Germany) were s.c. injected with 1×10^6 SW480 cells together with a matrix gel (1:1) in the sacral area. Treatment was initiated one day after cell inoculation. Vehicle or MTH1 inhibitor was administered subcutaneously once daily at 25 mg/kg for 35 days. MTH1 inhibitor was diluted in 1% DMSO, 10% ethanol, 10% cremaphore, 10% Tween 80, 69% PBS. Tumour size was measured twice weekly and body weight once weekly. At termination, a gross postmortem inspection was performed; blood was collected for haematological parameters and ASAT, ALAT, creatinine measurements and tumours collected in paraformaldehyde (4%) and later paraffin inbedded for immunohistology analysis. All experiments involving animals followed protocols approved by Stockholms Norra djurfOrsoksetiska namnd (laboratory animal ethical committee Stockholm). All animals were acclimatised for one week, and had free access to water and food during the experiment. Animals were under a 12-hour lightcycle, and temperature and humidity according to laboratory animal guidelines and regulations.
# [7] = system: SW480 colon carcinoma cells lysate proteins; assay type: binding, human; conditions: immobilized aminopropyl derivative of (S)-crizotinib
# SW480 cells [8] = assay: Colony formation assay using SW480 cells; assay type: cell-based, human; conditions: K-Ras-mutated SW480 colon carcinoma
# Experimental: Colony Formation Assay Using SW480 Cells. One day before treatment, 10^4 cells were seeded per well in 6-well plates and incubated for 24 h. The next day DMSO (equal to highest amount of compound dilution, maximum 0.2%) or compounds in increasing concentrations were added and cells incubated at 37° C., 5% CO2, for 7-10 days. After washing with PBS (Gibco), cells were fixed with ice-cold methanol, stained with crystal violet solution (0.5% in 25% methanol) and left to dry overnight. For quantification of results, UV absorbance of crystal violet was determined at 595 nm after solubilisation by 70% ethanol. Data were analysed using non-linear regression analysis utilizing the GraphPad Prism software.
# [9] = system: isogenic BJ fibroblast cell lines; assay: Colony formation assays in isogenic BJ fibroblast cell lines (anti-cancer specificity); assay type: cell-based; conditions: hTERT+SV40T, hTERT+SV40T+KRAS V12
# Text: FIG. 28: Anti-cancer specificity. […] As indicated, the investigated cell line panel comprised non-transformed (“wildtype”) cells, cells immortalized with telomerase (hTERT), cells transformed with hTERT and SV40 Large T antigen (SV40T), and cells transformed with hTERT, SV40T, and the KRAS mutant V12.
# The investigated cell line panel comprised non-transformed (“wildtype”) cells, cells immortalized with telomerase (hTERT), cells transformed with hTERT and SV40 Large T antigen (SV40T), and cells transformed with hTERT, SV40T, and the KRAS mutant V12 (FIG. 28).
# MCF-7 = conditions: 10 μM, versus DMSO-treated cells
# SW480 cells [10] = assay: ATM phosphorylation in SW480 cells; assay type: cell-based, human
# [11] = Tolerability in the xenograft study: hematology, liver/heart/kidney parameters, body weight; assay type: in vivo, SCID mice
# Experimental: as §2, with “MTH1 inhibitor was diluted in 1% DMSO, 10% ethanol, 10% cremaphore, 10% Tween 80, 69% PBS.” left out
# [12] = system: HCT116 colon carcinoma cells; assay: HCT116 isogenic cell line system (p53/p21/MLH1 status); conditions: HCT116 isogenic lines
# MTH1 [13] = molecular target: T1, MTH1 (Homo sapiens, UniProt P36639); assay: MTH1 catalytic assay (luminescence-based, PPi from 8-oxo-dGTP hydrolysis, PPiLight); assay type: biochemical; set-up: His-tag (TEV site) (cleaved yes); made in house; host or cells: E. coli BL-21(DE3), vector pETM-11
# ALK = assay: Drug pull-down with immobilized compounds from SH-SY5Y cells, Western blot for ALK; assay type: binding, human; conditions: SH-SY5Y lysate
# Experimental: Immobilization and Affinity Purification. […] Briefly, 25 nmol of compound was immobilised on 50 μL NHS-activated Sepharose 4 Fast Flow beads (GE Healthcare Bio-Sciences AB, Uppsala, Sweden).
# MTH1 [14] = molecular target: T1, MTH1; assay: Isothermal titration calorimetry (direct binding assay); set-up: His-tag (TEV site) (cleaved yes); made in house; host or cells: E. coli BL21 DE3; conditions: 15° C., 50 mM Tris-HCl pH 7.8, 150 mM NaCl
# [15] = system: SW480 colon carcinoma cells; assay: siRNA experiments (MTH1 gene silencing, colony staining); assay type: cell-based, human
# Experimental: siRNA Experiments. Both a commercial anti-MTH1 siRNA set (SMARTpool ON-TARGETplus, Dharmacon) as well as a custom-synthesised siRNA (Sigma-Aldrich) were obtained. […]. For transfections, cells were seeded in 24-well plates at approximately 30% confluency 24 h prior to siRNA treatment. The next day, medium was aspirated and transfections were performed with […]in (Polyplus) according to manufacturer's instructions using a final siRNA concentration of 10 nM. Cells were incubated for 2-3 days, washed, detached with trypsin and replated in 6-well plates. After 7-10 days, medium was aspirated, cells were washed with PBS, fixed with ice-cold methanol, stained with crystal violet solution (0.5% in 25% methanol) and left to dry overnight. […]. Data were analysed using the GraphPad Prism software (t test, P<0.05).
# [16] = 25 mg/kg s.c. 35 days, EDTA plasma, mean ± SD
# [17] = 25 mg/kg s.c. 35 days, mean ± SD
# [18] = error of nonlinear least squares fit
molecule,measurement,setting,value
"CC(Oc1cc(-c2cnn(C3CCNCC3)c2)cnc1N)c1c(Cl)ccc(F)c1Cl (racemic) [racemic crizotinib, 3-[1-(2,6-dichloro-3-fluoro-phenyl)-ethoxy]-5-(1-piperidin-4-yl-1H-pyrazol-4-yl)-pyridin-2-ylamine]",DNA damage in comet assay,MRC-5 lung fibroblasts,induced DNA damage
"C[C@@H](Oc1cc(-c2cnn(C3CCNCC3)c2)cnc1N)c1c(Cl)ccc(F)c1Cl [(R)-crizotinib, 3-[1-(2,6-dichloro-3-fluoro-phenyl)-ethoxy]-5-(1-piperidin-4-yl-1H-pyrazol-4-yl)-pyridin-2-ylamine]",growth inhibition of ESFT cells,[1],inhibited the growth of these cells at low nanomolar concentrations
same,toxicity on non-transformed BJ skin fibroblasts (colony formation),BJ skin fibroblasts; listed as (R)-enantiomer,significantly impairs the growth; also recorded: higher toxicity
same,targets identified by chemical proteomics,[2],common target of crizotinib in all samples
same,staining of anti-8-oxo-guanine antibody,BJ fibroblasts,not
"C[C@H](Oc1cc(-c2cnn(C3CCNCC3)c2)cnc1N)c1c(Cl)ccc(F)c1Cl [(S)-enantiomer of crizotinib, (S)-3-[1-(2,6-dichloro-3-fluoro-phenyl)-ethoxy]-5-(1-piperidin-4-yl-1H-pyrazol-4-yl)-pyridin-2-ylamine]",number of 53BP1 foci,SW480 cells [3],increase the number of 53BP1 foci
same,colony formation of PANC1 cells,[4],efficiently inhibited colony formation
same,tail moment in the comet assay,SW480 cells [5],yielded a significant tail moment
same,growth of MDA-MB-231 in colony formation assay,MDA-MB-231,significantly decreased the growth
same,reduction in tumour volume,SW480 cells [6],more than 50%
same,main cellular target in SW480 cells,[7],MTH1 (gene name NUDT1) is the main target
same,colony formation / growth of SW480 cells,SW480 cells [8],efficiently inhibited colony formation; also recorded: considerably more effective
same,toxicity on non-transformed BJ skin fibroblasts (colony formation),BJ skin fibroblasts,does not exhibit any increased unspecific cytotoxicity
same,toxicity to transformed versus wildtype / hTERT-immortalized BJ cells,[9],more toxic to transformed cells than to wildtype cells
same,growth of MCF-7 in colony formation assay,MCF-7,significantly decreased the growth
same,ATM phosphorylation,SW480 cells [10],increase of ATM phosphorylation
same,P-ALAT,[11]; [16],0.26 ± 0.07 mCat/l
same,p-ASAT,[11]; [16],1.10 ± 0.32 mCat/l
same,p-Creatinine,[11]; [16],18.6 ± 4.24 µM
same,HBG,[11]; [17],134 ± 6.25 g/L
same,Lymphocytes,[11]; [17],0.23 ± 0.06 10^9/l
same,MCH,[11]; [17],14.07 ± 0.30 pg
same,MCHC,[11]; [17],327 ± 4.90 g/L
same,MCV,[11]; [17],43.02 ± 1.07 fL
same,Monocytes,[11]; [17],0.16 ± 0.11 10^9/l
same,Neutrophils,[11]; [17],1.50 ± 0.51 10^9/l
same,RBC,[11]; [17],9.51 ± 0.37 10^12/l
same,Thrombocytes,[11]; [17],828 ± 160 10^9/l
same,WBC,[11]; [17],1.90 ± 0.64 10^9/l
same,tolerability,"[11]; 25 mg/kg s.c. once daily, 35 days",well-tolerated
same,change in haematological parameters,"[11]; 25 mg/kg s.c., 35 days, versus vehicle",no significant change
same,effect of loss of p21 on sensitivity of HCT116 cells,[12],seems to increase the sensitivity
same,effect of p53 status and functional MLH1 on activity in HCT116 cells,[12],do not affect the activity
same,staining of anti-8-oxo-guanine antibody,BJ fibroblasts,increased staining
CC(Oc1cc(-c2cnn(C3CCN(CCCN)CC3)c2)cnc1N)c1c(Cl)ccc(F)c1Cl (centres unmarked) [CeMM-146],inhibition of MTH1 catalytic activity (in words),MTH1 [13]; 8-oxo-dGTP hydrolysis,nanomolar inhibition
same,enrichment / binding of ALK isoforms by immobilized compound,ALK,enriches both ALK isoforms to highest extent
"Cn1cc(-c2ccc3nnc(C(F)(F)c4ccc5ncccc5c4)n3n2)cn1 [JNJ-38877605, reference compound]",colony formation / growth of SW480 cells,SW480 cells [8],does not suppress growth
"COc1cc(N2CCC(N3CCN(C)CC3)CC2)ccc1Nc1ncc(Cl)c(Nc2ccccc2S(=O)(=O)C(C)C)n1 [NVP-TAE684, reference compound]",inhibition of MTH1 catalytic activity at 100 μM,"MTH1 [13]; concentrations of 100 μM, data not shown",did not exhibit any significant inhibition
COc1ccc2nc3c(c(C)nn3C)c(NCCOCCO)c2c1 [SCH51344],number of 53BP1 foci,SW480 cells [3],increase the number of 53BP1 foci
same,tail moment in the comet assay,SW480 cells [5],yielded a significant tail moment
same,TΔS,MTH1 [14],3.17 kcal/mol
same,Kd,MTH1 [14]; [18],49 ± 5.6 nM
same,ΔH,MTH1 [14]; [18],-6.479 ± 0.045 kcal/mol
"anti-MTH1 siRNA: siRNA against MTH1; custom sequence CGACGACAGCUACUGGUUU (SEQ ID No. 48) or SMARTpool set (listed as RNA, chemistry not given here)",viability of SW480 cells after MTH1 gene silencing,[15],impairs viability
